Among the data in PubChem BioAssay (NCI) are GI50 and TGI values, retold here.

Holding throughout (assay): inhibition of tumour cell growth, NCI panel, 48 h
In experiment [1] the test system is CAKI-1 renal.
Experiment [2] has as its system COLO 205 colon.
Experiment [3] has as its system HOP-62 NSCLC.
The test system of experiment [4] is K-562 leukemia.
In experiment [5] the test system is MDA-MB-435.
Experiment [6] relates to NCI-H522 lung.
Experiment [7] relates to SNB-19 CNS.
The test system of experiment [8] is T-47D breast.

Values joined by “and” are separate entries in the source; they are usually repeats but may differ in a detail not shown here. Equal values may be shown once.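 The compound was tested at five concentrations on cells cultured in 96-well plates, with a 48-hour exposure period. At the GI50, growth is halved. TGI marks complete inhibition of growth.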

Turning to `CN(C)CCCn1c2c(c3ccc(N4CCNCC4)cc3c1=O)C(=O)c1ccccc1-2`, the GI50 in experiment [1] is 1.05 µM; in experiment [2], 0.624 µM; in experiment [3], 1.06 µM; in experiment [4], 0.833 µM; in experiment [5], 1.2 µM; in experiment [6], 0.96 µM. In addition, the GI50 is 0.541 µM in experiment [7] and 1.55 µM in experiment [8]. In addition, the TGI in experiment [1] was 4.52 µM; in experiment [2], 2.28 µM; in experiment [3] it was 2.64 µM; in experiment [4] it was 2.55 µM; in experiment [5], 2.67 µM; in experiment [6] it was 2.55 µM. For the same compound, the figures for the TGI in experiment [7] and in experiment [8] were 3.23 µM and 4.42 µM, respectively.
For `COc1cc(F)c(F)c(F)c1C(=O)c1cnc(NC2CCN(S(C)(=O)=O)CC2)nc1N`, the GI50 in experiment [1] is 0.843 µM; in experiment [2] it was 0.783 µM; in experiment [3], 2.11 µM; in experiment [4] it was 4.78 µM; in experiment [5] it was 0.782 µM; in experiment [6], 5.56 µM. Moreover, the GI50 in experiment [7] is 1.39 µM; in experiment [8], 2.64 µM. The TGI in experiment [1] is 10.8 µM; in experiment [2], 4.49 µM; in experiment [3], 16.2 µM; in experiment [4], over 25 µM; in experiment [5] it was 7.18 µM; in experiment [6], 15.6 µM. Besides, the TGI in experiment [7] was over 25 µM; in experiment [8] it was over 24.1 µM.
In the case of `NC1=Nc2cc(OCCCCN3Cc4ccccc4C3)c(OCC3CC3)cc2C12CCCC2`, the GI50 was 2.1 µM in experiment [1]; 1.45 µM in experiment [2]; 1.63 µM in experiment [3]; 0.398 µM in experiment [4]; 1.59 µM in experiment [5]; 1.86 µM in experiment [6]. Also, the figures for the GI50 in experiment [7] and in experiment [8] were 3.28 µM and 1.78 µM, respectively. The TGI is 6.5 µM in experiment [1]; 3.11 µM in experiment [2]; 3.39 µM in experiment [3]; 1.73 µM in experiment [4]; 2.99 µM in experiment [5]; 3.84 µM in experiment [6]. The TGI came to 12.4 µM in experiment [7] and 4.29 µM in experiment [8].
In the case of `N#CCC1CCN(c2nc(Nc3ccc(N4CCC(O)CC4)cc3)c3c(=O)[nH]ncc3n2)CC1`, the GI50 in experiment [1] was 0.312 µM; in experiment [2] it was 0.374 µM; in experiment [3], 0.801 µM; in experiment [4], 1.51 µM; in experiment [5] it was 0.628 µM; in experiment [6], over 100 µM. Also, the figures for the GI50 in experiment [7] and in experiment [8] were 5.02 µM and 2.05 µM, respectively. Also, the TGI in experiment [1], in experiment [3], in experiment [4], in experiment [5], in experiment [6] and in experiment [7] was over 100 µM throughout. Also, in experiment [8], the TGI was over 100 µM.
On to `O=C(/C=C/c1ccccc1)c1ccccn1`, for which the TGI is 33.2 µM and 64.4 µM in experiment [1]; 32.9 µM and 45.7 µM in experiment [2]; 29.3 µM and > 100 µM in experiment [3]; 36.6 µM and > 100 µM in experiment [4]; 44.7 µM and 88.7 µM in experiment [5]; 48.2 µM and 33.2 µM in experiment [6]. Further, the TGI in experiment [7] is 31 µM and > 100 µM; in experiment [8], 31.2 µM and 62.7 µM. The GI50 in experiment [3] was 13.9 µM and 34.7 µM; in experiment [4] it was 4.36 µM and 21.6 µM; in experiment [7], 15.1 µM and 31.9 µM.
In the case of `O=C1Nc2ccc(I)cc2/C1=C/c1cc(Br)c(O)c(Br)c1`, the GI50 was > 15.9 µM and 14.9 µM in experiment [1]; 24.3 µM and 18.3 µM in experiment [2]; > 25 µM and 21.9 µM in experiment [3]; over 51.9 µM in experiment [4]; 15 µM and 13.2 µM in experiment [5]; 16.2 µM and 16.5 µM in experiment [6]. For the same compound, the GI50 in experiment [7] was > 21.6 µM and 31.1 µM; in experiment [8], > 18.5 µM and 15.4 µM. In addition, the TGI is > 25 µM and 72 µM in experiment [1]; > 25 µM and 71.4 µM in experiment [2]; > 25 µM and 46.9 µM in experiment [3]; over 100 µM in experiment [4]; over 100 µM in experiment [5]; > 25 µM and 42.3 µM in experiment [6]. In addition, the TGI in experiment [7] was over 94.3 µM; in experiment [8], over 82.8 µM.
Regarding `Nc1c2ccccc2nc2ccccc12`, the GI50 in experiment [1] is 1.96 µM and 2.11 µM; in experiment [2], 0.966 µM and 1.83 µM; in experiment [3], 1.66 µM and 3.66 µM; in experiment [4], 3.16 µM and 3.06 µM; in experiment [5], 2.23 µM and 3.46 µM; in experiment [6], 1.15 µM and 3.03 µM. In addition, the GI50 in experiment [7] is 1.82 µM and 3.61 µM; in experiment [8], 1.62 µM and 2.99 µM. Also, the TGI is 5.96 µM in experiment [1]; 2.36 µM and 4.45 µM in experiment [2]; 4.96 µM and 15.2 µM in experiment [3]; 12.5 µM and 25.1 µM in experiment [4]; 6.32 µM and 13.7 µM in experiment [5]; 2.63 µM and 10.1 µM in experiment [6]. Moreover, the TGI in experiment [7] is 12.9 µM and 20.7 µM; in experiment [8], 6.38 µM and 7.61 µM.
Turning to `Nc1ncnc2c1ncn2C1SC(CO)C(O)C1O` (stereo not drawn), the GI50 in experiment [1] is 29.5 µM; in experiment [2], 33.3 µM; in experiment [3] it was 24.9 µM; in experiment [4], 16.9 µM; in experiment [5], 18.1 µM; in experiment [6], 40 µM. In addition, the GI50 in experiment [7] is 26 µM; in experiment [8] it was 5.24 µM. Also, the TGI in experiment [1] is over 100 µM; in experiment [2], over 100 µM; in experiment [3], 91.2 µM; in experiment [4], over 100 µM; in experiment [5] it was 50.2 µM; in experiment [6] it was over 100 µM. Moreover, the TGI in experiment [7] stood at 82.8 µM; in experiment [8] it was 26 µM.
Regarding `COc1cccc(-c2cc(-c3ccc(Nc4nc(Nc5ccc(Cl)cc5)nc(Nc5ccc(Cl)cc5)n4)cc3)nc(N)c2C#N)c1`, the GI50 in experiment [1] was 1.23 µM; in experiment [2], 1.63 µM; in experiment [3], 21.1 µM; in experiment [4], 1.52 µM; in experiment [5] it was 1.82 µM; in experiment [6] it was 1.75 µM. For the same compound, the GI50 in experiment [7] was 10.3 µM; in experiment [8], 1.34 µM. The TGI worked out at 5.09 µM in experiment [1]; 3.39 µM in experiment [2]; 44.6 µM in experiment [3]; 5.53 µM in experiment [4]; 4.24 µM in experiment [5]; 4.62 µM in experiment [6]. Moreover, the TGI in experiment [7] was over 39.3 µM; in experiment [8], 3.67 µM.
